# Experiment: Release (dissolution) profile of tablets, USP Apparatus 1 (baskets)
# Type: physicochemical
# Details: for mean value (n = 6) of % of Compound 1 released: tablet, 25 mg Methocel K100 Premium LVCR
# Text: USP Apparatus 1 (BASKETS) is described, for example, in the United States Pharmacopeial Convention, Feb. 1, 2012, Chapter <711> (“Dissolution”), incorporated by reference herein in its entirety. See http://www.usp.org/sites/default/files/usp_pdf/EN/USPNF/revisions/m99470-gc_711.pdf. The USP Apparatus 1 (baskets) assembly consists of the following: a vessel, which may be covered, made of glass or other inert, transparent material; a motor; a metallic drive shaft; and a cylindrical basket. The materials should not sorb, react, or interfere with the specimen being tested. The vessel is partially immersed in a suitable water bath of any convenient size or heated by a suitable device such as a heating jacket. The water bath or heating device permits holding the temperature inside the vessel at 37±0.5° during the test and keeping the bath fluid in constant, smooth motion. No part of the assembly, including the environment in which the assembly is placed, contributes significant motion, agitation, or vibration beyond that due to the smoothly rotating stirring element. An apparatus that permits observation of the specimen and stirring element during the test is preferable. The vessel is cylindrical, with a hemispherical bottom and with one of the following dimensions and capacities: for a nominal capacity of 1 L, the height is 160 mm to 210 mm and its inside diameter is 98 mm to 106 mm; for a nominal capacity of 2 L, the height is 280 mm to 300 mm and its inside diameter is 98 mm to 106 mm; and for a nominal capacity of 4 L, the height is 280 mm to 300 mm and its inside diameter is 145 mm to 155 mm. Its sides are flanged at the top. A fitted cover may be used to retard evaporation. If a cover is used, it provides sufficient openings to allow ready insertion of the thermometer and withdrawal of specimens. The shaft is positioned so that its axis is not more than 2 mm at any point from the vertical axis of the vessel and rotates smoothly and without significant wobble that could affect the results. The vertical center line of the blade passes through the axis of the shaft so that the bottom of the blade is flush with the bottom of the shaft. A distance of 25 f 2 mm between the bottom of the blade and the inside bottom of the vessel is maintained during the test. The metallic or suitably inert, rigid blade and shaft comprise a single entity. A suitable two-part detachable design may be used provided the assembly remains firmly engaged during the test.
# A speed-regulating device is used that allows the shaft rotation speed to be selected and maintained at the specified rate within +4%. Shaft and basket components of the stirring element are fabricated of stainless steel, type 316, or other inert material. A basket having a gold coating of about 0.0001 inch (2.5 μm) thick may be used. A dosage unit is placed in a dry basket at the beginning of each test. The distance between the inside bottom of the vessel and the bottom of the basket is maintained at 25±2 mm during the test.
# The release profiles for modified-release tablets were measured using USP Apparatus 1 (baskets).
# All release profiles disclosed in Tables 6a-6d were measured with USP Apparatus 1 (baskets) at 100 rpm in 500 mL of aqueous sodium phosphate at a concentration of 0.05 M (pH=6.8). The values in a given table relate to tablets obtained from the same batch. Values shown represent mean values over a number of dissolution tests (“n” in each table) in each case.
structure (smiles),measurement,setting,value
"O=C(O)COC[C@H]1CC[C@H](COC(=O)N(c2ccccc2)c2ccc(Cl)cc2)CC1 [Compound 1, 2-(((1r,4r)-4-(((4-chlorophenyl)(phenyl)carbamoyloxy)methyl)cyclohexyl)methoxy)acetic acid]",release rate of tablets relative to modified-release capsule,0.5 mg tablet with 40% HPMC K4M CR,faster
same,mean value (n = 6) of % of Compound 1 released,"Table 6a: initial release profile, 0.05 mg Compound 1, 25 mg Methocel K4M Premium CR, 60 min",6.9%
same,mean value (n = 6) of % of Compound 1 released,"Table 6a: initial release profile, 0.05 mg Compound 1, 25 mg Methocel K4M Premium CR, 120 min",25.3%
same,mean value (n = 6) of % of Compound 1 released,"Table 6a: initial release profile, 0.05 mg Compound 1, 25 mg Methocel K4M Premium CR, 180 min",35.8%
same,mean value (n = 6) of % of Compound 1 released,"Table 6a: initial release profile, 0.05 mg Compound 1, 25 mg Methocel K4M Premium CR, 240 min",45.1%
same,mean value (n = 6) of % of Compound 1 released,"Table 6a: initial release profile, 0.05 mg Compound 1, 25 mg Methocel K4M Premium CR, 360 min",62%
same,mean value (n = 6) of % of Compound 1 released,"Table 6a: initial release profile, 0.05 mg Compound 1, 25 mg Methocel K4M Premium CR, 480 min",74.8%
same,mean value (n = 6) of % of Compound 1 released,"Table 6a: initial release profile, 0.05 mg Compound 1, 25 mg Methocel K4M Premium CR, 600 min",86.6%
same,mean value (n = 6) of % of Compound 1 released,"Table 6a: initial release profile, 0.05 mg Compound 1, 25 mg Methocel K4M Premium CR, 840 min",100.4%
same,mean value (n = 6) of % of Compound 1 released,"Table 6b: initial release profile, 0.5 mg Compound 1, 25 mg Methocel K4M Premium CR, 60 min",17.9%
same,mean value (n = 6) of % of Compound 1 released,"Table 6b: initial release profile, 0.5 mg Compound 1, 25 mg Methocel K4M Premium CR, 120 min",27.3%
same,mean value (n = 6) of % of Compound 1 released,"Table 6b: initial release profile, 0.5 mg Compound 1, 25 mg Methocel K4M Premium CR, 180 min",36.9%
same,mean value (n = 6) of % of Compound 1 released,"Table 6b: initial release profile, 0.5 mg Compound 1, 25 mg Methocel K4M Premium CR, 240 min",45.5%
same,mean value (n = 6) of % of Compound 1 released,"Table 6b: initial release profile, 0.5 mg Compound 1, 25 mg Methocel K4M Premium CR, 360 min",61.1%
same,mean value (n = 6) of % of Compound 1 released,"Table 6b: initial release profile, 0.5 mg Compound 1, 25 mg Methocel K4M Premium CR, 480 min",74.2%
same,mean value (n = 6) of % of Compound 1 released,"Table 6b: initial release profile, 0.5 mg Compound 1, 25 mg Methocel K4M Premium CR, 600 min",84.8%
same,mean value (n = 6) of % of Compound 1 released,"Table 6b: initial release profile, 0.5 mg Compound 1, 25 mg Methocel K4M Premium CR, 840 min",98.1%
same,mean value (n = 6) of % of Compound 1 released,"Table 6c: after storage at 40° C. and 75% RH for 6 months, 0.05 mg Compound 1, 25 mg Methocel K4M Premium CR, 60 min",17%
same,mean value (n = 6) of % of Compound 1 released,"Table 6c: after storage at 40° C. and 75% RH for 6 months, 0.05 mg Compound 1, 25 mg Methocel K4M Premium CR, 120 min",27.1%
same,mean value (n = 6) of % of Compound 1 released,"Table 6c: after storage at 40° C. and 75% RH for 6 months, 0.05 mg Compound 1, 25 mg Methocel K4M Premium CR, 180 min",36.9%
same,mean value (n = 6) of % of Compound 1 released,"Table 6c: after storage at 40° C. and 75% RH for 6 months, 0.05 mg Compound 1, 25 mg Methocel K4M Premium CR, 240 min",45.4%
same,mean value (n = 6) of % of Compound 1 released,"Table 6c: after storage at 40° C. and 75% RH for 6 months, 0.05 mg Compound 1, 25 mg Methocel K4M Premium CR, 360 min",61.1%
same,mean value (n = 6) of % of Compound 1 released,"Table 6c: after storage at 40° C. and 75% RH for 6 months, 0.05 mg Compound 1, 25 mg Methocel K4M Premium CR, 480 min",75.8%
same,mean value (n = 6) of % of Compound 1 released,"Table 6c: after storage at 40° C. and 75% RH for 6 months, 0.05 mg Compound 1, 25 mg Methocel K4M Premium CR, 600 min",86.9%
same,mean value (n = 6) of % of Compound 1 released,"Table 6c: after storage at 40° C. and 75% RH for 6 months, 0.05 mg Compound 1, 25 mg Methocel K4M Premium CR, 840 min",100%
same,mean value (n = 6) of % of Compound 1 released,"Table 6d: after storage at 40° C. and 75% RH for 6 months, 0.5 mg Compound 1, 25 mg Methocel K4M Premium CR, 60 min",6.8%
same,mean value (n = 6) of % of Compound 1 released,"Table 6d: after storage at 40° C. and 75% RH for 6 months, 0.5 mg Compound 1, 25 mg Methocel K4M Premium CR, 120 min",24.3%
same,mean value (n = 6) of % of Compound 1 released,"Table 6d: after storage at 40° C. and 75% RH for 6 months, 0.5 mg Compound 1, 25 mg Methocel K4M Premium CR, 180 min",33%
same,mean value (n = 6) of % of Compound 1 released,"Table 6d: after storage at 40° C. and 75% RH for 6 months, 0.5 mg Compound 1, 25 mg Methocel K4M Premium CR, 240 min",41.3%
same,mean value (n = 6) of % of Compound 1 released,"Table 6d: after storage at 40° C. and 75% RH for 6 months, 0.5 mg Compound 1, 25 mg Methocel K4M Premium CR, 360 min",55.5%
same,mean value (n = 6) of % of Compound 1 released,"Table 6d: after storage at 40° C. and 75% RH for 6 months, 0.5 mg Compound 1, 25 mg Methocel K4M Premium CR, 480 min",67.9%
same,mean value (n = 6) of % of Compound 1 released,"Table 6d: after storage at 40° C. and 75% RH for 6 months, 0.5 mg Compound 1, 25 mg Methocel K4M Premium CR, 600 min",79.4%
same,mean value (n = 6) of % of Compound 1 released,"Table 6d: after storage at 40° C. and 75% RH for 6 months, 0.5 mg Compound 1, 25 mg Methocel K4M Premium CR, 840 min",94.7%
same,change of release profile following storage over time,"modified-release tablets (FIGS. 12-14), storage at 40° C. and 75% RH for six months",did not change significantly
same,release rate of tablets relative to modified-release capsule,tablet with 30% HPMC K4M and 20% HPMC K100 LVCR,slightly faster
same,release rate of tablets relative to modified-release capsule,"tablet with 40% HPMC K4M and 10% HPMC K100 LVCR, time points <6 hrs",faster
same,release rate of tablets relative to modified-release capsule,"tablet with 40% HPMC K4M and 10% HPMC K100 LVCR, time points ≥6 hrs",slower
same,"difference of percentage by weight of compound released, initial vs after storage","tablets 0.05 mg and 0.5 mg (FIGS. 12 and 13), storage at 40° C. and 75% RH for six months, any time point equal to or greater than 2 hours",≤ 10%

# — patent US12433865B2, “Compositions comprising PGI2-receptor agonists and processes for the preparation thereof” (Arena Pharmaceuticals, Inc., priority 2018, dated 2025)
